Experimental data from patent US20070197629A1, “Indole derivative and application thereof” (priority 2004, published 2007).
Like-named read-outs stand apart in the source and are kept apart here.

Legend:
osteoclasts [1] = assay: Assay of influences on osteoclasts: tartaric acid-resistant acid phosphatase (TRAP) activity in cultured goldfish scales; assay type: cell-based; conditions: for TRAP activity, amount of paranitrophenol produced: scales cultured at 15° C. for 6 hours, control 3.43 ± 0.04
Source text: In accordance with the method described in N. Suzuki and A. Hattori, J. Pineal Res., 33, 253-258, 2002, influences of an indole derivative on bone cells were inspected.
A female goldfish (body weight: about 30 g) was put under anesthesia with MS222 (ethyl 3-aminobenzoate, methane sulfonic acid salt) (Aldrich), and a desired number of scales were peeled off. The scales were washed twice in Eagle's minimum essential medium (ICN Biomedicals Inc.) comprising 1% antibiotics (a mixture of penicillin and streptomycin). Medium of the same type was introduced into each well of a 24-well plate in amounts of 1 ml, several scales were introduced to each well (8 scales in general), and 10^−4, 10^−6, and 10^−8 M indole derivatives were applied to separate wells. Subsequently, the scales were cultured at 15° C. for 6 hours. Also, a group to which no indole derivative had been added was prepared (a control group), and influences thereof on osteoclasts and osteoblasts were compared. Two control groups, i.e., a group for inspecting osteoclasts and a group for inspecting osteoblasts, were provided. Specifically, a total of 8 wells were provided for the control and 10^−4, 10^−6, and 10^−8 M indole derivatives (2 wells for each thereof). Accordingly, 3 types of indole derivatives can be inspected with the use of a 24-well plate.
After the culture, medium was removed, 0.05 M cacodylate buffer (pH 7.4) containing 10% formalin was added, and the scales were immobilized. The scales were stored in 0.05 M cacodylate buffer at 4° C. until the measurement of enzyme activity was initiated.
2-Bromomelatonin (a compound represented by formula (I) wherein X represents a bromine atom; R^1 represents a hydrogen atom; R^2 represents methyl; R^3, R^5 and R^6 each represent a hydrogen atom; and R^4 represents methyl), which was subjected to the test, was a known compound, and it was synthesized by the method described in M. Somei, Y. Fukui, M. Hasegawa, N. Oshikiri, and T. Hayashi, Heterocycles, 53, 1725-1736, 2000. • (1) Assay of Influences Imposed on Osteoclasts, i.e., Assay of Tartaric Acid-Resistant Acid Phosphatase (TRAP) Activity
The immobilized scales were removed from the plate, and the weights thereof were measured. Thereafter, the scales were introduced into a 96-well microplate, 200 μl of 100 mM acetate buffer containing 20 mM tartaric acid and 10 mM paranitrophenol phosphate (substrate) was introduced to each well, reaction was allowed to proceed at 25° C. for 1 hour, and an aqueous solution of 2N sodium hydroxide (50 μl) was then added in order to terminate the reaction. The solution after the reaction (150 μl) was transferred to the other microplate, and the amount of paranitrophenol (pNP) generated by TRAP was measured using a spectrophotometer (405 nm). The osteoclast activity was indicated in terms of the amount of paranitrophenol phosphate decomposed and that of pNP produced within 1 hour per mg of the scales.

osteoblasts [2] = assay: Assay of influences on osteoblasts: alkaline phosphatase (ALP) activity in cultured goldfish scales; assay type: cell-based; conditions: for ALP activity, amount of paranitrophenol produced: scales cultured at 15° C. for 6 hours, control 6.00-6.17 (per table)
Source text: In accordance with the method described in N. Suzuki and A. Hattori, J. Pineal Res., 33, 253-258, 2002, influences of an indole derivative on bone cells were inspected. A female goldfish (body weight: about 30 g) was put under anesthesia with MS222 (ethyl 3-aminobenzoate, methane sulfonic acid salt) (Aldrich), and a desired number of scales were peeled off. The scales were washed twice in Eagle's minimum essential medium (ICN Biomedicals Inc.) comprising 1% antibiotics (a mixture of penicillin and streptomycin). Medium of the same type was introduced into each well of a 24-well plate in amounts of 1 ml, several scales were introduced to each well (8 scales in general), and 10^−4, 10^−6, and 10^−8 M indole derivatives were applied to separate wells. Subsequently, the scales were cultured at 15° C. for 6 hours. Also, a group to which no indole derivative had been added was prepared (a control group), and influences thereof on osteoclasts and osteoblasts were compared. Two control groups, i.e., a group for inspecting osteoclasts and a group for inspecting osteoblasts, were provided. Specifically, a total of 8 wells were provided for the control and 10^−4, 10^−6, and 10^−8 M indole derivatives (2 wells for each thereof). Accordingly, 3 types of indole derivatives can be inspected with the use of a 24-well plate. After the culture, medium was removed, 0.05 M cacodylate buffer (pH 7.4) containing 10% formalin was added, and the scales were immobilized. The scales were stored in 0.05 M cacodylate buffer at 4° C. until the measurement of enzyme activity was initiated. • (2) Assay of Influences Imposed on Osteoblasts, i.e., Assay of Alkaline Phosphatase (ALP) Activity The immobilized scales were removed from the plate, and the weights thereof were measured. Thereafter, the scales were introduced into a 96-well microplate, 200 μl of 100 mM tris-HCl buffer (pH 9.5) comprising 10 mM paranitrophenol phosphate (substrate), 1 mM magnesium chloride, and 0.1 mM zinc chloride was introduced into each well, the reaction was allowed to proceed at 25° C. for 1 hour, and an aqueous solution of 2N sodium hydroxide (50 μl) was added thereto in order to terminate the reaction. Thereafter, 150 μl of the solution after the reaction was transferred to the other microplate, and the amount of pNP generated by ALP was measured using a spectrophotometer (405 nm) to determine the activity.

osteoclasts [3] = conditions: reported in N. Suzuki and A. Hattori, J. Pineal Res., 33, 253-258, 2002; cited from earlier work
osteoblasts [4] = conditions: reported in N. Suzuki and A. Hattori, J. Pineal Res., 33, 253-258, 2002; cited from earlier work

SMILES	TRAP activity, amount of paranitrophenol produced (osteoclasts [1]; indole derivative 10^−4 M)	TRAP activity, amount of paranitrophenol produced (osteoclasts [1]; indole derivative 10^−6 M)	TRAP activity, amount of paranitrophenol produced (osteoclasts [1]; indole derivative 10^−8 M)	melting point	ALP activity, amount of paranitrophenol produced (osteoblasts [2]; indole derivative 10^−4 M)	ALP activity, amount of paranitrophenol produced (osteoblasts [2]; indole derivative 10^−6 M)	ALP activity, amount of paranitrophenol produced (osteoblasts [2]; indole derivative 10^−8 M)	Influence on osteoclasts (in words) (osteoclasts [1]; summary of FIG. 1A, 1B, Table 1)	Influence on osteoclasts (in words) (osteoclasts [3])	Influence on osteoblasts (in words) (osteoblasts [4])	Influence on osteoblasts (in words) (osteoblasts [2]; summary of FIG. 2A, 2B, Tables 2A to 2G)
C=CCn1c(Br)c(CCNC(C)=O)c2c(Br)c(OC)c(Br)cc21 [1-Allyl-2,4,6-tribromomelatonin, N-acetyl-1-allyl-2,4,6-tribromo-5-methoxyindole-3-ethanamine]	2.87 ± 0.10 nmol/mg of scales/hr	2.89 ± 0.12 nmol/mg of scales/hr	2.99 ± 0.13 nmol/mg of scales/hr	142 to 143 °C	6.44 ± 0.44 nmol/mg of scales/hr	6.79 ± 0.63 nmol/mg of scales/hr	8.30 ± 0.68 nmol/mg of scales/hr				
COc1c(Br)cc2c(c1Br)c(CCNC(C)=O)c(Br)n2Cc1ccccc1 [1-Benzyl-2,4,6-tribromomelatonin, N-acetyl-1-benzyl-2,4,6-tribromo-5-methoxyindole-3-ethanamine]	2.59 ± 0.24 nmol/mg of scales/hr	2.83 ± 0.20 nmol/mg of scales/hr	2.85 ± 0.20 nmol/mg of scales/hr	218 to 219 °C	7.77 ± 0.37 nmol/mg of scales/hr	7.92 ± 0.55 nmol/mg of scales/hr	8.44 ± 1.00 nmol/mg of scales/hr				
COc1c(Br)c(Br)c2[nH]c(Br)c(CCNC(C)=O)c2c1Br [2,4,6,7-Tetrabromomelatonin, 2,4,6,7-tetrabromomelatonin]	2.71 ± 0.17 nmol/mg of scales/hr	2.83 ± 0.16 nmol/mg of scales/hr	3.19 ± 0.14 nmol/mg of scales/hr		6.12 ± 0.41 nmol/mg of scales/hr	6.12 ± 0.50 nmol/mg of scales/hr	7.90 ± 0.73 nmol/mg of scales/hr				
C#CCn1c(Br)c(CCNC(C)=O)c2c(Br)c(OC)c(Br)cc21 [2,4,6-Tribromo-1-propargylmelatonin, N-acetyl-2,4,6-tribromo-5-methoxy-1-propargylindole-3-ethanamine]	2.78 ± 0.13 nmol/mg of scales/hr	2.82 ± 0.15 nmol/mg of scales/hr	2.78 ± 0.15 nmol/mg of scales/hr		7.55 ± 0.76 nmol/mg of scales/hr	8.66 ± 0.47 nmol/mg of scales/hr	7.07 ± 0.75 nmol/mg of scales/hr				
COc1c(Br)cc2[nH]c(Br)c(CCNC(C)=O)c2c1Br [2,4,6-Tribromomelatonin, N-acetyl-2,4,6-tribromo-5-methoxyindole-3-ethanamine]	2.93 ± 0.18 nmol/mg of scales/hr	2.87 ± 0.13 nmol/mg of scales/hr	2.88 ± 0.08 nmol/mg of scales/hr		6.00 ± 0.38 nmol/mg of scales/hr	6.61 ± 0.38 nmol/mg of scales/hr	7.58 ± 0.70 nmol/mg of scales/hr				
COc1c(Br)cc2c(c1Br)c(CCNC(C)=O)c(Br)n2S(=O)(=O)c1ccc(C)cc1 [2,4,6-tribromo-1-tosyl-melatonin, N-acetyl-2,4,6-tribromo-5-methoxy 1-tosylindole-3-ethanamine]				215 to 216 °C							
COc1ccc2[nH]c(Br)c(CCNC(C)=O)c2c1 [2-Bromomelatonin]	2.83 ± 0.23 nmol/mg of scales/hr	2.62 ± 0.17 nmol/mg of scales/hr	3.02 ± 0.23 nmol/mg of scales/hr		5.72 ± 0.47 nmol/mg of scales/hr	6.03 ± 0.66 nmol/mg of scales/hr	7.41 ± 0.35 nmol/mg of scales/hr				
COc1ccc2[nH]cc(CCNC(C)=O)c2c1 [Melatonin, N-acetyl-5-methoxytryptamine, reference compound]	2.67 ± 0.11 nmol/mg of scales/hr	2.69 ± 0.15 nmol/mg of scales/hr	2.91 ± 0.13 nmol/mg of scales/hr		5.19 ± 0.36 nmol/mg of scales/hr	5.42 ± 0.25 nmol/mg of scales/hr	5.45 ± 0.27 nmol/mg of scales/hr	suppressively acts	act suppressively	act suppressively	suppressively acts
